Source: ChEMBL document CHEMBL3745648, “Synthesis, in vitro antibacterial activities of a series of 3-N-substituted canthin-6-ones” (2016)
Values after ≈ are worked out from the molar mass of the structure shown.

What was measured:
Format in all cases: functional
Bacillus cereus = assay: Antibacterial activity against Bacillus cereus after 12 to 16 hrs by plate reader analysis
Ralstonia solanacearum [1] = assay: Antibacterial activity against Ralstonia solanacearum after 12 to 16 hrs by plate reader analysis
Ralstonia solanacearum [2] = assay: Antibacterial activity against Pseudomonas solanacearum after 12 to 16 hrs by plate reader analysis
Staphylococcus aureus = assay: Antibacterial activity against Staphylococcus aureus after 12 to 16 hrs by plate reader analysis

| SMILES | MIC (Bacillus cereus) [µg/mL] | MIC (Ralstonia solanacearum [1]) [µg/mL] | MIC (Ralstonia solanacearum [2]) [µg/mL] | MIC (Staphylococcus aureus) [µg/mL] |
| --- | --- | --- | --- | --- |
| O=C1CCc2nccc3c4ccccc4n1c23 | 15.6 (≈ 70.3 µM) | 15.6 (≈ 70.3 µM) | 7.81 (≈ 35.1 µM) | 125 (≈ 562 µM) |
| O=C1CCC2c3c(c4ccccc4n31)CCN2Cc1ccccc1 (stereo unspecified) | > 125 | > 125 | > 125 | > 125 |
| Cc1ccc(C[n+]2ccc3c4ccccc4n4c(=O)ccc2c34)cc1.[Cl-] | 15.6 | 31.2 | 7.81 | 1.95 |
| CCCCCCCC[n+]1ccc2c3ccccc3n3c(=O)ccc1c23.[Br-] | 62.5 | 31.2 | 7.81 | 0.98 |
| O=c1ccc2c3c(cc[n+]2Cc2ccc(CBr)cc2)c2ccccc2n13.[Br-] | 62.5 | 31.2 | 31.2 | 7.81 |
| O=c1ccc2c3c(cc[n+]2Cc2ccc(Cl)cc2)c2ccccc2n13.[Cl-] | 15.6 | 15.6 | 15.6 | 7.81 |
| Cc1cccc(C[n+]2ccc3c4ccccc4n4c(=O)ccc2c34)c1.[Cl-] | 15.6 | 15.6 | 7.81 | 1.95 |
| CC[n+]1ccc2c3ccccc3n3c(=O)ccc1c23.[I-] | > 125 | > 125 | > 125 | > 125 |
| O=c1ccc2c3c(cc[n+]2Cc2ccc(F)cc2F)c2ccccc2n13.[Cl-] | 31.2 | 31.2 | 7.81 | 0.98 |
| O=c1ccc2c3c(cc[n+]2Cc2ccccc2)c2ccccc2n13.[Cl-] | 3.91 | 3.91 | 1.95 | 1.95 |
| O=c1ccc2c3c(cc[n+]2Cc2ccc(F)cc2)c2ccccc2n13.[Cl-] | 31.2 | 31.2 | 15.6 | 1.95 |
| O=C1CCC2NCCc3c2n1c1ccccc31 (stereo unspecified) | > 125 | > 125 | > 125 | > 125 |
| O=c1ccc2c3c(cc[n+]2Cc2ccccc2F)c2ccccc2n13.[Cl-] | 7.81 | 15.6 | 3.91 | 1.95 |
| O=c1ccc2c3c(cc[n+]2Cc2c(F)cccc2F)c2ccccc2n13.[Cl-] | 15.6 | 15.6 | 7.81 | 0.98 |
| CC(C)[n+]1ccc2c3ccccc3n3c(=O)ccc1c23.[I-] | > 125 | > 125 | > 125 | > 125 |
| CCCCC[n+]1ccc2c3ccccc3n3c(=O)ccc1c23.[I-] | 62.5 | 31.2 | 15.6 | 31.2 |
| CCC[n+]1ccc2c3ccccc3n3c(=O)ccc1c23.[I-] | > 125 | > 125 | > 125 | > 125 |
| O=c1ccc2c3c(cc[n+]2Cc2ccc(C(F)(F)F)cc2)c2ccccc2n13.[Cl-] | 62.5 | 15.6 | 62.5 | 7.81 |
| C=CC[n+]1ccc2c3ccccc3n3c(=O)ccc1c23.[Br-] | 125 | 62.5 | 62.5 | 62.5 |
| CC(C)C[n+]1ccc2c3ccccc3n3c(=O)ccc1c23.[I-] | > 125 | > 125 | 62.5 | 125 |
| C[n+]1ccc2c3ccccc3n3c(=O)ccc1c23.[I-] | > 125 | > 125 | > 125 | > 125 |
| Cc1ccccc1C[n+]1ccc2c3ccccc3n3c(=O)ccc1c23.[Cl-] | 7.81 | 7.81 | 3.91 | 1.95 |
| O=c1ccc2c3c(cc[n+]2Cc2ccccc2)c2ccccc2n13.[Br-] | 3.91 | 3.91 | 7.81 | 0.98 |
| O=c1ccc2c3c(cc[n+]2Cc2ccc(OCc4ccccc4)cc2)c2ccccc2n13.[Cl-] | 15.6 | 7.81 | 3.91 | 0.98 |
| O=c1ccc2c3c(cc[n+]2[O-])c2ccccc2n13 | 15.6 (≈ 66.2 µM) | 15.6 (≈ 66.2 µM) | 7.81 (≈ 33.1 µM) | 15.6 (≈ 66.2 µM) |
| CCCC[n+]1ccc2c3ccccc3n3c(=O)ccc1c23.[I-] | 125 | 62.5 | 62.5 | 62.5 |
| CC1(C)S[C@@H]2[C@H](NC(=O)[C@H](N)c3ccccc3)C(=O)N2[C@H]1C(=O)[O-].[Na+] [AMPICILLIN SODIUM] | 3.91 | 7.81 | 7.81 | 3.91 |
| O=c1ccc2nccc3c4ccccc4n1c23 [CANTHIN-6-ONE] | 7.81 (≈ 35.5 µM) | 7.81 (≈ 35.5 µM) | 3.91 (≈ 17.8 µM) | 31.2 (≈ 142 µM) |
| C[C@@H]1O[C@@H]1P(=O)([O-])[O-].[Na+].[Na+] [PHOSPHOMYCIN DISODIUM] | 3.91 | 1.95 | 125 | 3.91 |
